Nc1nc(N)nc(-c2ccncc2)n1
solubility (mole fraction)
Conditions	288.15 K	293.15 K	298.15 K	303.15 K	308.15 K	313.15 K	318.15 K
in THF	0.00308	0.00334	0.00362	0.0039	0.00407	0.00433	0.00455
in ethanol	0.000734	0.000813	0.000925	0.0011	0.00122	0.00137	0.00159
in isopropanol	0.000426	0.000506	0.000641	0.000787	0.000925	0.00116	0.00142
in methanol	0.00138	0.00149	0.0017	0.00198	0.00214	0.00237	0.00269
in n-propanol	0.000641	0.00072	0.00083	0.000942	0.00111	0.00128	0.00153

From BigSolDB 2.1
